Experimental data from patent US20030032640A1, “Novel composition” (priority 2000, published 2003).
Structures can show the parent of a compound that is named as a salt. Each block holds one molecule with its values, some of them ahead of it.

What was measured:
[1] = Bulk density of the small-particle size HCl salt; assay type: physicochemical; details: densifies on addition of water
Text: The fourth aspect of the newly recognised problem is that the small-particle size SB-207266 HCl salt has a low bulk density, densifying on the addition of water. This means that less material can be added to a mixer of fixed volume, leading to a less efficient manufacturing process as large volumes of equipment have to be used for relatively small volumes of drug (smaller throughput in plant).

[2] = Cohesiveness and flowability of drug substance and granules; assay type: physicochemical; details: HCl salt crystallised from ethanol/IMS with C5-C10 hydrocarbon
Text: The second aspect of the newly recognised problem, is the discovery that the SB 207266 HCl salt produced by these processes is very cohesive and has poor flowability/flow characteristics.

[3] = Particle size (DV 90/50/10) of batches of SB-207266-A made by the Description 1 process; assay type: physicochemical; details: for DV 10 / DV 50 / DV 90: individual batch, hydrochloride; for DV 10: 10% by volume of the material is less than this size; for DV 50: 50% by volume of the material is less than this size; for DV 90: 90% by volume of the material is less than this size
Text: The first aspect of the newly recognised problem is that such processes produce the SB 207266 hydrochloride salt in the form of particles of extremely small particle size.
DV 90, DV 50 and DV 10 respectively mean that 90%, 50% and 10% by volume of the material is less than the micron size specified.

5HT4 receptor = 5HT4 receptor (Homo sapiens, UniProt Q13639); details: from the cited literature; cited from earlier work
Chain of 5HT4 receptor (Q13639 whole entry): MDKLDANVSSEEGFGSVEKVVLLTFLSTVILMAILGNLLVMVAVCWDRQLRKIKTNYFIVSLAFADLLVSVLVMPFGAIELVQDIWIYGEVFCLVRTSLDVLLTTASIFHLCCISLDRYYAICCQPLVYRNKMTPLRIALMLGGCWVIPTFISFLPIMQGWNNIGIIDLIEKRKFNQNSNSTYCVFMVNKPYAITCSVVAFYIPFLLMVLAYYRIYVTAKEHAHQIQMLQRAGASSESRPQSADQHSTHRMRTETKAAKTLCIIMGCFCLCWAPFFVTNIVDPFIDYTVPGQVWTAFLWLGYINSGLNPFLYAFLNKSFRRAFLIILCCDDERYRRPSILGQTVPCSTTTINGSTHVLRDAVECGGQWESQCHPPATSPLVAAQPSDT

- bulk density [1]: low
- cohesiveness [2]: very cohesive
- flowability/flow characteristics [2]: poor
- DV 10, average of batches ([3]; average of the five batches): 1.5 μm
- DV 50, average of batches ([3]; average of the five batches): 5.8 μm
- DV 90, average of batches ([3]; average of the five batches): 14.4 μm
- DV 10 ([3]; listed as BDC-G-02C): 1.5 μm
- DV 10 ([3]; listed as BDC-G-03C): 1.8 μm
- DV 10 ([3]; listed as BDC-G-04C): 1.4 μm
- DV 10 ([3]; listed as BDC-G-05C): 1.5 μm
- DV 10 ([3]; listed as BDC-H-01C): 1.4 μm
- DV 50 ([3]; listed as BDC-G-02C): 5.7 μm
- DV 50 ([3]; listed as BDC-G-03C): 6.8 μm
- DV 50 ([3]; listed as BDC-G-04C): 5.3 μm
- DV 50 ([3]; listed as BDC-G-05C): 5.8 μm
- DV 50 ([3]; listed as BDC-H-01C): 5.3 μm
- DV 90 ([3]; listed as BDC-G-02C): 13.8 μm
- DV 90 ([3]; listed as BDC-G-03C): 16.4 μm
- DV 90 ([3]; listed as BDC-G-04C): 14.4 μm
- DV 90 ([3]; listed as BDC-G-05C): 14.6 μm
- DV 90 ([3]; listed as BDC-H-01C): 12.8 μm
SMILES: CCCCN1CCC(CNC(=O)c2c3n(c4ccccc24)CCCO3)CC1 [SB-207266-A, N-[(1-butyl-4-piperidinyl)methyl]-3,4-dihydro-2H-[1,3]-oxazino[3,2-α]indole-10-carboxamide hydrochloride]

SMILES: CCCCN1CCC(CNC(=O)c2c3n(c4ccccc24)CCCO3)CC1 [SB 207266, N-[(1-^nbutyl-4-piperidinyl)methyl]-3,4-dihydro-2H-[1,3]oxazino[3,2-a]indole-10-carboxamide]
- selectivity for the 5HT4 receptor over other 5HT receptors (5HT4 receptor): highly selective
